# Values quoted from earlier work, collected in patent US7595079B2, “Nutritional conjunctive support therapy for recovery in animals following stress or illness” (Bomac Vets Plus, Inc., priority 2005, dated 2009).
# Legend:
# [1] = tested on: jejunum crypt; conditions: malnourished rats; target value ≦150
# [2] = tested on: jejunum villus; conditions: weaning of pigs; target value ≧339
# [3] = tested on: small intestinal crypt; conditions: E. coli induced diarrhea in calves; target value ≦100
smiles,measurement,setting,value
NC(=O)CC[C@H](N)C(=O)O [Glutamine],Jejunum Crypt depth,[1],134 um
same,Jejunum Villus Height,[2],358 um
same,Mid plus Distal small intestinal Crypt width (mean % of baseline control),[3],92.2 mean % of baseline control
